# Assay results taken from US20170305922A1, “CARM1 INHIBITORS AND USES THEREOF” (Epizyme, Inc., priority 2014, published 2017).
# System: asymmetric di-methyl PABP1 in RKO cells
# Test: RKO methylation assay: In Cell Western (ICW) for asymmetric di-methyl PABP1 (PABP1me2a)
# Settings: Cellular-based (PABP1me2a) ICW (In Cell Western) assay, 48 hours
# From the text: RKO adherent cells were purchased from ATCC (American Type Culture Collection), Manassas, Va., USA. DMEM/Glutamax medium, penicillin-streptomycin, heat inactivated fetal bovine serum, 0.05% trypsin and D-PBS were purchased from Life Technologies, Grand Island, N.Y., USA. Odyssey blocking buffer, 800CW goat anti-rabbit IgG (H+L) antibody, and Licor Odyssey infrared scanner were purchased from Licor Biosciences, Lincoln, Nebr., USA. Asymmetric di-methyl PABP1 antibody was purchased from Cell Signaling Technology, Danvers, Mass., USA. Methanol was purchased from VWR, Franklin, Mass., USA. 10% Tween 20 was purchased from KPL, Inc., Gaithersburg, Md., USA. Paraformaldehyde (PFA) was purchased from EM Sciences. DRAQ5 was purchased from Biostatus Limited, Leicestershire, UK.
# RKO adherent cells were maintained in growth medium (DMEM/Glutamax medium supplemented with 10% v/v heat inactivated fetal bovine serum and 100 units/mL penicillin-streptomycin) and cultured at 37° C. under 5% CO2.
# Cell treatment, In Cell Western (ICW) for detection of asymmetric di-methyl PABP1 and DNA content: RKO cells were seeded in assay medium at a concentration of 30,000 cells per mL to a poly-D-lysine coated 384 well culture plate (BD Biosciences 356697) with 50 μL per well. Compound (100 nL) from a 96-well source plate was added directly to 384 well cell plate. Plates were incubated at 37° C., 5% CO2 for 48 hours. After two days of incubation, plates were brought to room temperature outside of the incubator for ten minutes and blotted on paper towels to remove cell media. Cells were fixed for 20 minutes at room temperature by adding 50 ul of 8% PFA followed by aspiration of supernatant with the Biotek EL406 plate washer. Cells were then permeabilized by addition of 50 μL of ice cold 100% methanol directly to each well and incubated for 30 min at room temperature. After 30 min, plates were transferred to a Biotek EL406 plate washer and washed 2 times with 100 μL per well of wash buffer (1×PBS). Next 60 μL per well of Odyssey blocking buffer (Odyssey Buffer with 0.1% Tween 20 (v/v)) were added to each plate and incubated 1 hour at room temperature. Blocking buffer was removed and 20 μL per well of primary antibody was added (asymmetric-methyl PABP1) diluted 1:400 in Odyssey buffer with 0.1% Tween 20 (v/v)) and plates were incubated overnight (16 hours) at 4° C. Plates were washed 5 times with 100 μL per well of wash buffer. Next 20 μL per well of secondary antibody was added (1:800 800CW goat anti-rabbit IgG (H+L) antibody, 1:2000 DRAQ5 in Odyssey buffer with 0.1% Tween 20 (v/v)) and incubated for 1 hour at room temperature. The plates were washed 5 times with 100 μL per well wash buffer then 2 times with 100 μL per well of water. Plates were allowed to dry at room temperature then imaged on the Licor Odyssey machine which measures integrated intensity at 700 nm and 800 nm wavelengths. Both 700 and 800 channels were scanned.
# First, the ratio for each well was determined by:
# Each plate included fourteen control wells of DMSO only treatment (minimum inhibition) as well as fourteen control wells for maximum inhibition treated with 20 μM of a reference compound. The average of the ratio values for each control type was calculated and used to determine the percent […] for each test well in the plate. Reference compound was serially diluted three-fold in DMSO for a total of nine test concentrations, beginning at 20 μM.
# Percent inhibition was determined and IC50 curves were generated using triplicate wells per concentration of compound.
row,IC50,Structure (SMILES)
1,66.7 nM,CNC[C@@H](O)COc1ccc(Cl)c(-c2nc(-c3c(C)noc3C)c(C)c(N3CC4(CCN(C(=O)OC)CC4)C3)n2)c1 [Example 292]

# Same assay, conditions: Homo sapiens, RKO, 48 h, Cellular-based (PABP1me2a) ICW (In Cell Western) assay
row,Structure (SMILES),IC50
1,CNC[C@@H](O)COc1ccc(Cl)c(-c2nc(-c3c(C)noc3C)c(Cl)c(N3Cc4cnn(C)c4C3)n2)c1 [Example 11],> 20000 nM
2,CNC[C@@H](O)COc1ccc(Cl)c(-c2nc(-c3c(C)noc3C)c(C)c(N3Cc4c(C)nn(C(C)C)c4C3)n2)c1 [Example 12],81 nM
3,CNC[C@@H](O)COc1ccc(Cl)c(-c2nc(-c3c(C)noc3C)c(C)c(N3Cc4c(C)nn(CC(F)(F)F)c4C3)n2)c1 [Example 13],74 nM
4,CNC[C@@H](O)COc1ccc(F)c(-c2nc(-c3c(C)noc3C)c(C)c(N3Cc4cnn(CC(F)(F)F)c4C3)n2)c1 [Example 18],69 nM
5,CNC[C@@H](O)COc1ccc(Cl)c(-c2nc(-c3c(C)noc3C)c(C)c(N3CC4(CCC(F)CC4)C3)n2)c1 [Example 20],125 nM
6,CNC[C@@H](O)COc1ccc(C(F)(F)F)c(-c2nc(-c3c(C)noc3C)c(C)c(N3CC4(CCOCC4)C3)n2)c1 [Example 21],179 nM

# Next, values leading:
row,IC50,Structure (SMILES)
1,162 nM,CNC[C@@H](O)COc1ccc(F)c(-c2nc(-c3c(C)noc3C)c(C)c(N3Cc4cn(CC(F)(F)F)nc4C3)n2)c1 [Example 17]
2,140 nM,CNC[C@@H](O)COc1ccc(F)c(-c2nc(-c3c(C)noc3C)c(C)c(N3Cc4cn(C5CC5)nc4C3)n2)c1 [Example 15]
3,56 nM,CNC[C@@H](O)COc1ccc(F)c(-c2nc(-c3c(C)noc3C)c(C)c(N3Cc4cnn(C5CC5)c4C3)n2)c1 [Example 16]
4,44 nM,CNC[C@@H](O)COc1ccc(Cl)c(-c2nc(-c3c(C)noc3C)c(C)c(N3Cc4cc(C(F)(F)F)cnc4C3)n2)c1 [Example 14]

# Molecular target: T1, Human CARM1 (PRMT4) (Homo sapiens, UniProt Q86X55)
# T1 construct: Flag-CARM1-His was eluted with 200 ug/ml FLAG peptide in buffer A; made in house; host or cells: HEK 293F cells infected with recombinant baculovirus (pFastBacMam)
# T1 sequence (Q86X55 1-585 isoform Q86X55-1): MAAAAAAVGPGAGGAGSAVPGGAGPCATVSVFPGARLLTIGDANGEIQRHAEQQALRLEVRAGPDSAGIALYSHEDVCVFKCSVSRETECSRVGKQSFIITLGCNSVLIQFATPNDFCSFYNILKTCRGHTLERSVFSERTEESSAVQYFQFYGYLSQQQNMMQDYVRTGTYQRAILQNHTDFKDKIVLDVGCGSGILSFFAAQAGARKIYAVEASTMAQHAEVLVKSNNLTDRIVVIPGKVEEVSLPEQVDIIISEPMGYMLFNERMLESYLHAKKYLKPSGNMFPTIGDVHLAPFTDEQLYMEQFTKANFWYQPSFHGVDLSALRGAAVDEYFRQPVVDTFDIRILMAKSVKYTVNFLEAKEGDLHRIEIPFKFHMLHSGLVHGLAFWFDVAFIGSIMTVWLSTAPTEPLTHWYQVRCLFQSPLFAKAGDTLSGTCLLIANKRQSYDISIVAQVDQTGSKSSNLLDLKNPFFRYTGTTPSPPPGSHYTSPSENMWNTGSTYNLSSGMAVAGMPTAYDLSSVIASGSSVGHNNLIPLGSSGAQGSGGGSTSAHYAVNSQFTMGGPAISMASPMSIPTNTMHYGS
# Test: CARM1 enzyme assay on peptide substrates (3H-SAM Flashplate)
# Settings: Biochemical assay; CARM1 0.25 nM, 3H-SAM 30 nM, peptide 250 nM; read-out: Biochem IC50
# From the text: S-adenosylmethionine (SAM), S-adenosylhomocysteine (SAH), bicine, Tween20, dimethylsulfoxide (DMSO), bovine skin gelatin (BSG), sodium butyrate and Tris(2-carboxyethyl)phosphine hydrochloride solution (TCEP) were purchased from Sigma-Aldrich at the highest level of purity possible. ^3H-SAM was purchase from American Radiolabeled Chemicals with a specific activity of 80 Ci/mmol. 384-well streptavidin Flashplates were purchased from PerkinElmer.
# Peptide representative of human histone H3 residues 16-30 was synthesized with an N-terminal linker-affinity tag motif and a C-terminal amide cap by 21st Century Biochemicals. […] The sequence was Biot-Ahx-[…]-amide and contained a monomethylated arginine at position 26 (SEQ ID NO.:1).
# The gene sequence encoding isoform1 containing a deletion of amino acids 539-561 was amplified subsequently and subcloned into pFastBacMam (Viva Biotech).
# Recombinant baculovirus were generated according to Bac-to-Bac kit instructions (Life Technologies). Protein over-expression was accomplished by infecting exponentially growing HEK 293F cell culture at 1.3×10^6 cell/ml with virus (MOI=10) in the presence of 8 mM sodium butyrate. Infections were carried out at 37° C. for 48 hours, harvested by centrifugation, and stored at −80° C. for purification.
# Column was washed with 500 mM NaCl in buffer A and Flag-CARM1-His was eluted with 200 ug/ml FLAG peptide in buffer A. Pooled fractions were dialyzed in 20 mM Tris, 150 mM NaCl, 5% glycerol and 1 mM DTT, pH 7.8.
# The assays were all performed in a buffer consisting of 20 mM Bicine (pH=7.6), 1 mM TCEP, 0.005% BSG, and 0.002% Tween 20, prepared on the day of use. Compounds in 100% DMSO (1 ul) were spotted into a polypropylene 384-well V-bottom plates (Greiner) using a Platemate Plus outfitted with a 384-channel head (Thermo Scientific). DMSO (1 ul) was added to Columns 11, 12, 23, 24, rows A-H for the maximum signal control and 1 ul of SAH, a known product and inhibitor of CARM1, was added to columns 11, 12, 23, 24, rows I-P for the minimum signal control. A cocktail (40 ul) containing the CARM1 enzyme was added by Multidrop Combi (Thermo-Fisher). The compounds were allowed to incubate with CARM1 for 30 min at room temperature, then a cocktail (10 ul) containing ^3H-SAM and peptide was added to initiate the reaction (final volume=51 ul). The final concentrations of the components were as follows: CARM1 was 0.25 nM, ^3H-SAM was 30 nM, peptide was 250 nM, SAH in the minimum signal control wells was 1 mM, and the DMSO concentration was 2%. The assays were stopped by the addition of non-radiolabeled SAM (10 ul) to a final concentration of 300 uM, which dilutes the ^3H-SAM to a level where its incorporation into the peptide substrate is no longer detectable. 50 ul of the reaction in the 384-well polypropylene plate was then transferred to a 384-well Flashplate and the biotinylated peptides were allowed to bind to the streptavidin surface for at least 1 hour before being washed once with 0.1% Tween20 in a Biotek ELx405 plate washer. The plates were then read in a PerkinElmer TopCount plate reader to measure the quantity of ^3H-labeled peptide bound to the Flashplate surface, measured as disintegrations per minute (dpm) or alternatively, referred to as counts per minute (cpm).
# where dpm=disintegrations per minute, cmpd=signal in assay well, and min and max are the respective minimum and maximum signal controls.
# where top and bottom are the normally allowed to float, but may be fixed at 100 or 0 respectively in a 3-parameter fit. The Hill Coefficient normally allowed to float but may also be fixed at 1 in a 3-parameter fit. Y is the % inhibition and X is the compound concentration.
row,Structure (SMILES),IC50
1,CNC[C@@H](O)COc1ccc(Cl)c(-c2nc(-c3c(C)noc3C)c(Cl)c(N3Cc4cnn(C)c4C3)n2)c1 [Example 11],60.7 nM
2,CNC[C@@H](O)COc1ccc(Cl)c(-c2nc(-c3c(C)noc3C)c(C)c(N3Cc4c(C)nn(C(C)C)c4C3)n2)c1 [Example 12],4.1 nM
3,CNC[C@@H](O)COc1ccc(Cl)c(-c2nc(-c3c(C)noc3C)c(C)c(N3Cc4c(C)nn(CC(F)(F)F)c4C3)n2)c1 [Example 13],3.6 nM
4,CNC[C@@H](O)COc1ccc(F)c(-c2nc(-c3c(C)noc3C)c(C)c(N3Cc4cnn(CC(F)(F)F)c4C3)n2)c1 [Example 18],3.1 nM
5,CNC[C@@H](O)COc1ccc(Cl)c(-c2nc(-c3c(C)noc3C)c(C)c(N3CC4(CCC(F)CC4)C3)n2)c1 [Example 20],7.4 nM
6,CNC[C@@H](O)COc1ccc(C(F)(F)F)c(-c2nc(-c3c(C)noc3C)c(C)c(N3CC4(CCOCC4)C3)n2)c1 [Example 21],16.6 nM

# Second part, the molecule after the results:
row,IC50,Structure (SMILES)
1,2.4 nM,CNC[C@@H](O)COc1ccc(F)c(-c2nc(-c3c(C)noc3C)c(C)c(N3Cc4cn(CC(F)(F)F)nc4C3)n2)c1 [Example 17]
2,1.9 nM,CNC[C@@H](O)COc1ccc(F)c(-c2nc(-c3c(C)noc3C)c(C)c(N3Cc4cn(C5CC5)nc4C3)n2)c1 [Example 15]
3,2.1 nM,CNC[C@@H](O)COc1ccc(F)c(-c2nc(-c3c(C)noc3C)c(C)c(N3Cc4cnn(C5CC5)c4C3)n2)c1 [Example 16]
4,2.2 nM,CNC[C@@H](O)COc1ccc(Cl)c(-c2nc(-c3c(C)noc3C)c(C)c(N3Cc4cc(C(F)(F)F)cnc4C3)n2)c1 [Example 14]
